# From patent US20260158009A1 (GENZYME CORPORATION, priority 2023, published 2026)
# Experiments:
# [1] = molecular target: T1, hRIPK1 (aa 1-375) fusion protein (Homo sapiens, UniProt Q13546); experiment: ADP-Glo kinase assay: catalytic activity of RIPK1 (autophosphorylation, conversion of ATP to ADP); type: biochemical
# T1 construct: hRIPK1 (aa 1-375) fusion protein
# T1 sequence (Q13546 1-375): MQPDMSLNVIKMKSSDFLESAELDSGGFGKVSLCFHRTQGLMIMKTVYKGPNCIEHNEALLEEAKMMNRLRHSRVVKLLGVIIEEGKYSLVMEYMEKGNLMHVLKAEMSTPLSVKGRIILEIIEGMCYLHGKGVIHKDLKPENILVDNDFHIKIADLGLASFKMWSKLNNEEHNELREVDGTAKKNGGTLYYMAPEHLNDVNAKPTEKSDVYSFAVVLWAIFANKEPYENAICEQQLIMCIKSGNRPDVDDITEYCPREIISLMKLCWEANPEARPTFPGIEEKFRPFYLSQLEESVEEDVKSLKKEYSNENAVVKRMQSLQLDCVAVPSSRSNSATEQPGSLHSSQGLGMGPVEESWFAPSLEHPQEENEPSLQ
# Procedure, shortened: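 The readout was ADP-Glo luminescence after a 240 min rt autophosphorylation reaction with 50 μM ATP, following 30 min preincubation of 3.6 μg/ml hRIPK1 (aa 1-375) fusion with compound at 33300-1.69 nM final in 1% DMSO. Values came from Levenberg-Marquardt nonlinear fits.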
# U937 cells = experiment: Cellular assay in U937 cells: activity of RIPK1 inhibitors on TNFα/zVAD.fmk-induced cell death (necroptosis), CellTiter 96 AQueous (MTS) readout; type: cell-based; conditions: Homo sapiens, U-937
# Procedure, shortened: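 Necroptosis was measured by viable-cell MTS reduction (4 h, absorbance 490 nm) after overnight (18–24 h) 37° C culture. Cell suspensions of U937 cells carried TNFα (100 ng/ml) plus zVAD.fmk (50 μM) before compound was added. A 10-point curve (10 μM–0.26 nM or 1 μM–0.07 nM) was run in duplicate, normalised to the control lacking TNFα/zVAD.fmk.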
SMILES,IC50 [1],IC50 (U937 cells)
"NC(=O)c1ccc2c(cnn2C[C@H]2CC[C@H](C(=O)N3OCC[C@H]3c3cc(F)cc(F)c3)CC2)c1 [compound 73, trans-1-((4-((S)-3-(3,5-difluorophenyl)isoxazolidine-2-carbonyl)cyclohexyl)methyl)-1H-indazole-5-carboxamide]",24 nM,9 nM
"N#Cc1cc(F)cc([C@@H]2CCON2C(=O)[C@H]2CC[C@H](Cn3cnc4cc(C(N)=O)c(F)cc43)CC2)c1 [compound 74, trans-1-((4-((S)-3-(3-cyano-5-fluorophenyl)isoxazolidine-2-carbonyl)cyclohexyl)methyl)-6-fluoro-1H-benzo[d]imidazole-5-carboxamide]",28 nM,106 nM
"NC(=O)c1cc2ncn(C[C@H]3CC[C@H](C(=O)N4OCC[C@H]4c4cc(F)cc(F)c4)CC3)c2cc1F [compound 75, trans-1-((4-((S)-3-(3,5-difluorophenyl)isoxazolidine-2-carbonyl)cyclohexyl)methyl)-6-fluoro-1H-benzo[d]imidazole-5-carboxamide]",27 nM,36 nM
"N#Cc1cc(F)cc([C@@H]2CCON2C(=O)[C@H]2CC[C@H](Cn3ccc4cc(F)c(C(N)=O)cc43)CC2)c1 [compound 76, trans-1-((4-((S)-3-(3-cyano-5-fluorophenyl)isoxazolidine-2-carbonyl)cyclohexyl)methyl)-5-fluoro-1H-indole-6-carboxamide]",17 nM,8 nM
"NC(=O)c1cc2c(ccn2C[C@H]2CC[C@H](C(=O)N3OCC[C@H]3c3cc(F)cc(F)c3)CC2)cc1F [compound 77, trans-1-((4-((S)-3-(3,5-difluorophenyl)isoxazolidine-2-carbonyl)cyclohexyl)methyl)-5-fluoro-1H-indole-6-carboxamide]",14 nM,3 nM
"N#Cc1cc(F)cc([C@@H]2CCON2C(=O)[C@H]2CC[C@H](Cn3ncc4ncc(C(N)=O)cc43)CC2)c1 [compound 78, trans-1-((4-((S)-3-(3-cyano-5-fluorophenyl)isoxazolidine-2-carbonyl)cyclohexyl)methyl)-1H-pyrazolo[4,3-b]pyridine-6-carboxamide]",40 nM,72 nM
"NC(=O)c1cnc2cnn(C[C@H]3CC[C@H](C(=O)N4OCC[C@H]4c4cc(F)cc(F)c4)CC3)c2c1 [compound 79, trans-1-((4-((S)-3-(3,5-difluorophenyl)isoxazolidine-2-carbonyl)cyclohexyl)methyl)-1H-pyrazolo[4,3-b]pyridine-6-carboxamide]",22 nM,13 nM
"N#Cc1cc(F)cc([C@@H]2CCON2C(=O)[C@H]2CC[C@H](Cn3cnc4c(F)cc(C(N)=O)cc43)CC2)c1 [compound 80, trans-1-((4-((S)-3-(3-cyano-5-fluorophenyl)isoxazolidine-2-carbonyl)cyclohexyl)methyl)-4-fluoro-1H-benzo[d]imidazole-6-carboxamide]",60 nM,745 nM
"NC(=O)c1cc(F)c2ncn(C[C@H]3CC[C@H](C(=O)N4OCC[C@H]4c4cc(F)cc(F)c4)CC3)c2c1 [compound 81, trans-1-((4-((S)-3-(3,5-difluorophenyl)isoxazolidine-2-carbonyl)cyclohexyl)methyl)-4-fluoro-1H-benzo[d]imidazole-6-carboxamide]",33 nM,166 nM
"Cc1ncn(C[C@H]2CC[C@H](C(=O)N3OCC[C@H]3c3cc(F)cc(C#N)c3)CC2)c1C [compound 82, trans-3-((S)-2-(4-((4,5-dimethyl-1H-imidazol-1-yl)methyl)cyclohexane-1-carbonyl)isoxazolidin-3-yl)-5-fluorobenzonitrile]",67 nM,136 nM
"Cc1ncn(C[C@H]2CC[C@H](C(=O)N3OCC[C@H]3c3cc(F)cc(F)c3)CC2)c1C [compound 83, trans-((S)-3-(3,5-difluorophenyl)isoxazolidin-2-yl)(4-((4,5-dimethyl-1H-imidazol-1-yl)methyl)cyclohexyl)methanone]",32 nM,22 nM
Cc1nn(C[C@H]2CC[C@H](C(=O)N3OCC[C@H]3c3cc(F)cc(F)c3)CC2)c2cc(C#N)c(F)cc12 [compound 84],13 nM,4 nM
"Cc1nn(C[C@H]2CC[C@H](C(=O)N3OCC[C@H]3c3cc(F)cc(C#N)c3)CC2)c2cc(C#N)c(F)cc12 [compound 85, trans-1-((4-((S)-3-(3-cyano-5-fluorophenyl)isoxazolidine-2-carbonyl)cyclohexyl)methyl)-5-fluoro-3-methyl-1H-indazole-6-carbonitrile]",21 nM,3 nM
"N#Cc1cc2c(cnn2C[C@H]2CC[C@H](C(=O)N3OCC[C@H]3c3cc(F)cc(F)c3)CC2)cc1F [compound 86, trans-1-((4-((S)-3-(3,5-difluorophenyl)isoxazolidine-2-carbonyl)cyclohexyl)methyl)-5-fluoro-1H-indazole-6-carbonitrile]",14 nM,1 nM
"N#Cc1cc(F)cc([C@@H]2CCON2C(=O)[C@H]2CC[C@H](Cn3ncc4cc(F)c(C#N)cc43)CC2)c1 [compound 87, trans-1-((4-((S)-3-(3-cyano-5-fluorophenyl)isoxazolidine-2-carbonyl)cyclohexyl)methyl)-5-fluoro-1H-indazole-6-carbonitrile]",18 nM,3 nM
"Cc1ncn(C[C@H]2CC[C@H](C(=O)N3OCC[C@H]3c3cc(F)cc(C#N)c3)CC2)c1C#N [compound 88, trans-1-((4-((S)-3-(3-cyano-5-fluorophenyl)isoxazolidine-2-carbonyl)cyclohexyl)methyl)-4-methyl-1H-imidazole-5-carbonitrile]",52 nM,157 nM
"Cc1ncn(C[C@H]2CC[C@H](C(=O)N3OCC[C@H]3c3cc(F)cc(F)c3)CC2)c1C#N [compound 89, trans-1-((4-((S)-3-(3,5-difluorophenyl)isoxazolidine-2-carbonyl)cyclohexyl)methyl)-4-methyl-1H-imidazole-5-carbonitrile]",34 nM,38 nM
"Cc1c(C#N)ncn1C[C@H]1CC[C@H](C(=O)N2OCC[C@H]2c2cc(F)cc(C#N)c2)CC1 [compound 90, trans-1-((4-((S)-3-(3-cyano-5-fluorophenyl)isoxazolidine-2-carbonyl)cyclohexyl)methyl)-5-methyl-1H-imidazole-4-carbonitrile]",75 nM,147 nM
"Cc1c(C#N)ncn1C[C@H]1CC[C@H](C(=O)N2OCC[C@H]2c2cc(F)cc(F)c2)CC1 [compound 91, trans-1-((4-((S)-3-(3,5-difluorophenyl)isoxazolidine-2-carbonyl)cyclohexyl)methyl)-5-methyl-1H-imidazole-4-carbonitrile]",39 nM,67 nM
"O=C([C@H]1CC[C@H](Cn2cnc3cc(F)ccc32)CC1)N1OCC[C@H]1c1cnccn1 [compound 92, trans-(4-((5-fluoro-1H-benzo[d]imidazol-1-yl)methyl)cyclohexyl)((S)-3-(pyrazin-2-yl)isoxazolidin-2-yl)methanone]",75 nM,132 nM
"N#Cc1cc(F)cc([C@@H]2CCON2C(=O)[C@H]2CC[C@H](Cn3ccc4ncc(F)cc43)CC2)c1 [compound 93, trans-3-fluoro-5-((S)-2-(4-((6-fluoro-1H-pyrrolo[3,2-b]pyridin-1-yl)methyl)cyclohexane-1-carbonyl)isoxazolidin-3-yl)benzonitrile]",20 nM,2 nM
"O=C([C@H]1CC[C@H](Cn2ccc3ncc(F)cc32)CC1)N1OCC[C@H]1c1cc(F)cc(F)c1 [compound 94, trans-((S)-3-(3,5-difluorophenyl)isoxazolidin-2-yl)(4-((6-fluoro-1H-pyrrolo[3,2-b]pyridin-1-yl)methyl)cyclohexyl)methanone]",19 nM,1 nM
"N#Cc1cc(F)cc([C@@H]2CCON2C(=O)[C@H]2CC[C@H](Cn3ccc4cc(F)ccc43)CC2)c1 [compound 95, trans-3-fluoro-5-((S)-2-(4-((5-fluoro-1H-indol-1-yl)methyl)cyclohexane-1-carbonyl)isoxazolidin-3-yl)benzonitrile]",22 nM,4 nM
"O=C([C@H]1CC[C@H](Cn2ccc3cc(F)ccc32)CC1)N1OCC[C@H]1c1cc(F)cc(F)c1 [compound 96, trans-((S)-3-(3,5-difluorophenyl)isoxazolidin-2-yl)(4-((5-fluoro-1H-indol-1-yl)methyl)cyclohexyl)methanone]",16 nM,2 nM
"N#Cc1cc2ncn(C[C@H]3CC[C@H](C(=O)N4OCC[C@H]4c4cnccn4)CC3)c2cc1F [compound 97, trans-6-fluoro-1-((4-((S)-3-(pyrazin-2-yl)isoxazolidine-2-carbonyl)cyclohexyl)methyl)-1H-benzo[d]imidazole-5-carbonitrile]",78 nM,214 nM
"N#Cc1cc2c(cc1F)ncn2C[C@H]1CC[C@H](C(=O)N2OCC[C@H]2c2cnccn2)CC1 [compound 98, trans-5-fluoro-1-((4-((S)-3-(pyrazin-2-yl)isoxazolidine-2-carbonyl)cyclohexyl)methyl)-1H-benzo[d]imidazole-6-carbonitrile]",32 nM,84 nM
